This is an account of results in patent US8426420B2, “Heterocyclic pyrazole-carboxamidesas P2Y12 antagonists” (Sanofi, priority 2007, dated 2013).

Structures are written as SMILES.

The subject of experiment [1] is human platelet rich plasma. The experiment can be described thus: Inhibition of human platelet aggregation, "Born"-method using single cuvettes. The experiment is classed as cell-based. The settings on record: 0.1 h, ADP-induced aggregation, 6 minutes.
Another experiment deals with human P2Y12 receptor (Homo sapiens, UniProt Q9H244). Briefly: Human P2Y12 recombinant cell membrane binding assay with 33P 2MeS-ADP. To be noted: competition against 33P 2MeS-ADP, membranes of CHO cells with recombinant human P2Y12 receptor. Put shortly:
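CHO membranes expressing human P2Y12 (20 μg/ml stock) preincubated 15 min at RT with compound in HEPES pH 7.4 buffer, then 33P 2MeS-ADP (1.61 nM working solution) added for 20 min at RT. Bound label filtered and counted; four-point, five-fold series from 10 μM final, triplicate, four-parameter fit.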

Experiment [2] relates to human platelet rich plasma. Briefly: Inhibition of human platelet aggregation, 96-well assay. The experiment is classed as cell-based. To be noted: Homo sapiens, Platelet, 20 min. The essentials:
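ADP-induced aggregation read as 650 nm absorbance every minute for 20 min at 37 °C, with shaking between reads. PRP (~3×E8 platelets/ml, diluted with PPP, ACD-A blood from healthy volunteers) was exposed to compound for 5 min before adding a 40 μM ADP stock (15 μl into 150 μl).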

human P2Y12 receptor, sequence (Q9H244 whole entry): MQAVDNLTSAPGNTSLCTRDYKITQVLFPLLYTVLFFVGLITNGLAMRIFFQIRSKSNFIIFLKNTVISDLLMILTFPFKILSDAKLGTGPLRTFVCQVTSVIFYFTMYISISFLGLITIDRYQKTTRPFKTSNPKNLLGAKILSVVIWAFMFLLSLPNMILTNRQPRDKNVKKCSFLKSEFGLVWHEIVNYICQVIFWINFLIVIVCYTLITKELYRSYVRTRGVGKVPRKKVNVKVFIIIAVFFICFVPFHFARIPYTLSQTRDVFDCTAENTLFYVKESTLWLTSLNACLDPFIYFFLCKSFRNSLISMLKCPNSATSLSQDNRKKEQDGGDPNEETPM

As for `CCOC(=O)N1CCN(C(=O)[C@H](CCC(=O)O)NC(=O)c2cc(OCC(=O)N3CCC[C@H]3c3nc(C)c[nH]3)n(-c3ccccc3)n2)CC1` [Example 172, 4-{(S)-4-Carboxy-2-[(5-{2-[(S)-2-(4-methyl-1H-imidazol-2-yl)-pyrrolidin-1-yl]-2-oxo-ethoxy}-1-phenyl-1H-pyrazole-3-carbonyl)-amino]-butyryl}-piperazine-1-carboxylic acid ethyl ester], the IC50 – broadly, the midpoint of a concentration-inhibition curve – in experiment [1] was determined as 530 nM; on human P2Y12 receptor it was 146 nM; in experiment [2], 380 nM.

Regarding `CCCCOC(=O)N1CCN(C(=O)CNC(=O)c2cc(OCC(=O)N3CCC[C@H]3C(=O)NC3CCC3)n(-c3ccccc3)n2)CC1` [Example 182, 4-[2-({5-[2-((S)-2-Cyclobutylcarbamoyl-pyrrolidin-1-yl)-2-oxo-ethoxy]-1-phenyl-1H-pyrazole-3-carbonyl}-amino)-acetyl]-piperazine-1-carboxylic acid butyl ester], the half-maximal inhibitory concentration (IC50) in experiment [1] worked out at 46 nM; on human P2Y12 receptor, 20 nM; in experiment [2], 30 nM.

For `CCOC(=O)N1CCN(C(=O)[C@H](CCC(=O)O)NC(=O)c2cc(OCC(=O)N3CCC[C@H]3C(=O)NCC(F)F)n(-c3ccccc3)n2)CC1` [Example 15, 4-{(S)-4-Carboxy-2-[(5-{2-[(S)-2-(2,2-difluoro-ethylcarbamoyl)-pyrrolidin-1-yl]-2-oxo-ethoxy}-1-phenyl-1H-pyrazole-3-carbonyl)-amino]-butyryl}-piperazine-1-carboxylic acid ethyl ester], the IC50 came out at 120 nM in experiment [1], 164 nM on human P2Y12 receptor and 130 nM in experiment [2].

For `CCCCOC(=O)N1CCN(C(=O)[C@H](CCC(=O)O)NC(=O)c2cc(OCC(=O)N3CCC[C@H]3C(=O)NC3CC3)n(-c3ccccc3)n2)CC1` [Example 118, 4-[(S)-4-Carboxy-2-({5-[2-((S)-2-cyclopropylcarbamoyl-pyrrolidin-1-yl)-2-oxo-ethoxy]-1-phenyl-1H-pyrazole-3-carbonyl}-amino)-butyryl]-piperazine-1-carboxylic acid butyl ester], the half-inhibitory concentration (IC50) in experiment [1] was determined as 25 nM; at human P2Y12 receptor, 9 nM; in experiment [2] it was 20 nM.

Consider `CCOC(=O)N1CCN(C(=O)[C@H](CCC(=O)O)NC(=O)c2cc(OCC(=O)N3CCC[C@H]3C(=O)NC3CCC3)n(-c3cccc(F)c3)n2)CC1` [Example 73, 4-((S)-4-Carboxy-2-{[5-[2-((S)-2-cyclobutylcarbamoyl-pyrrolidin-1-yl)-2-oxo-ethoxy]-1-(3-fluoro-phenyl)-1H-pyrazole-3-carbonyl]-amino}-butyryl)-piperazine-1-carboxylic acid ethyl ester], for which the IC50 in experiment [1] turned out to be 210 nM; at human P2Y12 receptor it was 55 nM; in experiment [2], 10 nM.
